According to patent publication US6380183B1, “Treatment of diseases involving cyst formation” (Scios, Inc., priority 1998, dated 2002):

Columns and labels:
[1] = tested on: isolated working rat heart; details: isolated working rat heart model; cited from earlier work
[2] = tested on: guinea pig heart preparation; details: Ro5-4864 effects reversed by PK 11195; cited from earlier work
human atrial strips = details: not antagonized by PK 11195; cited from earlier work
Langendorf rat heart = details: cited from earlier work
human ADPKD cells = assay: Promega Cell titer 96 MTT proliferation assay on human ADPKD cells; assay type: cell-based
Procedure: In this experiment, the effect of concentrations from […] to 10^−6 M of the known PTBR agonist, Ro5-4864 on the rate of proliferation of human autosomal dominant polycystic kidnay disease (ADPKD) cells was examined.
Epithelial cells from human ADPKD kidneys have been cultured from the domes of cysts and maintained in primary culture through several passages.
The rate of cell proliferation was determined using the Promega Cell titer 96 MTT Assay method. This assay is a modification of that described by Mosmann T 1983 J Immunol Meth. 65, 55. […] The relation between cell number and O.D. was linear, and r^2 was >0.98. To determine the effect of agonists on the rate of proliferation, approximately 4000 cells were seeded into individual chambers of a 96-well plate. The cells were incubated initially in DME/F12 medium supplemented only with penicillin, streptomycin, ITS and 1% FBS. After 24 hours,.the FBS was reduced to 0.002% (ITS deleted) to arrest growth. This small amount of serum was needed to potentiate cell attachment to the plastic surface. The human ADPKD cells were then cultured for 48 hours, after adding the cAMP (a stimulator of cell proliferation) at a concentration of 100 μM. A control and forskolin group were examined as well. Preliminary studies determined that growth was sustained over this entire interval.
Thereafter the effect of a range of concentrations from 10^−12 to 10^−6 M of the known PTBR agonist, Ro5-4864 on the rate of proliferation of […] pretreated with cAMP or not treated (baseline proliferation) was examined. The results are graphically illustrated in FIG. 6. Each data set shown in FIG. 6 is mean, and was obtained from six determinations. Accordingly, the results are highly statistically significant.

polycystic cpk mice = details: cited from earlier work

## CCC(C)N(C)C(=O)c1cc2ccccc2c(-c2ccccc2Cl)n1 (centres unmarked) [PK 11195, 1-(2-chlorophenyl)-N-methyl-N-(1-methylpropyl)-3-isoquinoline carboxamide]
[1]
  cardiac function: depress cardiac function

## CN1C(=O)CN=C(c2ccc(Cl)cc2)c2cc(Cl)ccc21 [Ro5-4864]
[2]
  duration of intracellular action potential and contractility: decreased
Human atrial strips
  depressant effect on the contraction amplitude (negative inotropic effect): 20%
Langendorf rat heart; isolated perfused Langendorf rat heart
  heart rate and left ventricular contractility: without affecting
Langendorf rat heart; isolated perfused Langendorf rat heart, effect not antagonized by PK 11195
  coronary flow: increase coronary flow
Human ADPKD cells; human ADPKD cells
  visual observation of the cells: growth arrest versus cell killing: arresting cell growth and not be killing the cells
Human ADPKD cells; human ADPKD cells not treated with cAMP (baseline), all concentrations examined, 10^-12 to 10^-6 M, MTT O.D., six determinations
  basal cell proliferation: blocked
Human ADPKD cells; human ADPKD cells pretreated with 100 μM cAMP, all concentrations examined, 10^-12 to 10^-6 M, MTT O.D., six determinations
  cAMP stimulated cell proliferation: blocked
[1]
  cardiac function: depress cardiac function

## O=C1CN=C(c2ccccc2Cl)c2cc([N+](=O)[O-])ccc2N1 [clonazepam]
[2]
  duration of intracellular action potential and contractility: ineffective

## CN1C(=O)CN=C(c2ccccc2)c2cc(Cl)ccc21 [diazepam]
[2]
  duration of intracellular action potential and contractility: less effective
Langendorf rat heart; Langendorf rat heart
  contractile force: increased contractile force

## CC(=O)O[C@H]1C(=O)[C@@]2(C)[C@H]([C@H](OC(=O)c3ccccc3)[C@]3(O)C[C@H](OC(=O)[C@H](O)[C@@H](NC(=O)c4ccccc4)c4ccccc4)C(C)=C1C3(C)C)[C@]1(OC(C)=O)CO[C@@H]1C[C@@H]2O [taxol]
Polycystic cpk mice
  progression of PKD: inhibit the progression of PKD
  survival: prolongs the survival
